Data as given in patent publication US4902709A, “Novel antihypercholesterolemic compounds” (Merck & Co., Inc., priority 1988, dated 1990).

Target: T1, HMG-CoA reductase (Rattus norvegicus, UniProt P51639)
T1 sequence (P51639 1-887): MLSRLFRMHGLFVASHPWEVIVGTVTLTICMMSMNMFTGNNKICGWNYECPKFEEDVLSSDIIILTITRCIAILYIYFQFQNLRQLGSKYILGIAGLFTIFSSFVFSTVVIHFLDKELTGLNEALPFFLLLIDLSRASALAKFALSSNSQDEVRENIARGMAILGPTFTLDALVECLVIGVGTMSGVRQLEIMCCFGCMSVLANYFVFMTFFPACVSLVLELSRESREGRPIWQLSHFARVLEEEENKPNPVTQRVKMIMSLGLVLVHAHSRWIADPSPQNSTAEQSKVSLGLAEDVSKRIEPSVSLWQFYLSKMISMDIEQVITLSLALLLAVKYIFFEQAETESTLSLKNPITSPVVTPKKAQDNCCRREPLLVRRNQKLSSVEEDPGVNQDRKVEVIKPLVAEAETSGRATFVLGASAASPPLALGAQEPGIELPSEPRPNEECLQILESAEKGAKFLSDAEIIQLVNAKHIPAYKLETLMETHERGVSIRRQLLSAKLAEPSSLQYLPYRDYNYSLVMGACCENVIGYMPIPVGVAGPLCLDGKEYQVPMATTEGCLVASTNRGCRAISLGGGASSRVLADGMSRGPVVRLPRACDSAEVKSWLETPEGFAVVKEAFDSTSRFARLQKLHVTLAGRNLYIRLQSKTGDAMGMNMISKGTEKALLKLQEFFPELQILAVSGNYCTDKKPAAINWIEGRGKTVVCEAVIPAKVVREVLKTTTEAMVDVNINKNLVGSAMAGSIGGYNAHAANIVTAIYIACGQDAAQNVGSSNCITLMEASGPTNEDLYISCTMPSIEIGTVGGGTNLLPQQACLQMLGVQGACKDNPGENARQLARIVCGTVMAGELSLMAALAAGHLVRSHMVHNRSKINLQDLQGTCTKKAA
Assay: intrinsic HMG-CoA reductase inhibition (in vitro procedure detailed in U.S. Pat. No. 4,668,699)
Type: biochemical
Conditions: 2,4 dichloro derivatives of formula I

| IC50 | SMILES |
| --- | --- |
| 33.6 µM | O=C1C[C@H](c2ccc(-c3ccccc3)cc2)C[C@@H](CCc2ccc(Cl)cc2Cl)O1 (relative stereo) [Example 2] |
| 43.5 µM | COc1ccc([C@@H]2CC(=O)O[C@@H](CCc3ccc(Cl)cc3Cl)C2)cc1 (relative stereo) [Example 4] |
| 20.8 µM | O=C1C[C@@H](c2ccc(O)cc2)C[C@H](CCc2ccc(Cl)cc2Cl)O1 (relative stereo) [Example 5] |
| 42 µM | O=C1C[C@@H](c2ccccc2CO)C[C@H](CCc2ccc(Cl)cc2Cl)O1 (relative stereo) [Example 8] |

| SMILES | IC50 |
| --- | --- |
| O=C1C[C@@H](c2ccccc2)C[C@H](CCc2ccc(Cl)cc2Cl)O1 (relative stereo) [Example 1, trans-6-[2-(2,4-dichlorophenyl)ethyl]-3,4,5,6-tetrahydro-4-phenyl-2H-pyran-2-one] | 21 µM |
